“Also recorded” adds a separate entry of the source.
How the values were obtained:
LNCaP cells [1] = test: WST-1 cell viability / LNCaP cell growth inhibition assay; type: cell-based; settings: Homo sapiens, 144 h, 6 days, read-out: Cell growth inhibition, agents alone, IC50
Procedure: To measure cell viability, 24-well plates were coated with a 0.05% poly-L-lysine solution for 30 min. The wells were then washed with sterilised dH2O. LNCaP cells (1 × 10^4) were seeded in the plates and maintained in RPMI 1640 medium (Gibco-Invitrogen, Carlsbad, CA, USA). The cells were allowed to attach for 36 h. After attachment, fresh media was added and the cells were treated with a concentration range of either ATRA or each of the RAMBAs for 6 days. The media was changed every 3 days. On the day the assay was performed, the media was removed and 1 ml of a stock solution of WST-1 (4-[3-(4-iodophenyl)-2-(4-nitrophenyl)-2H-5-tetrazolio]-1,3-benzene disulfonate) cell proliferation reagent (Boehringer Mannheim, Indianapolis, IN, USA), diluted 1 : 10 in RPMI 1640 medium (without FBS), was added to each well. The plates were incubated at 37°C for 3 h. The media was then removed and 500 μl of DMSO was added and agitated vigorously for 5 min. The slightly red tetrazolium salt WST-1 is reduced to a dark red, water-soluble formazan product by mitochondrial dehydrogenase from living cells, which gives absorbance at a wavelength of 450 nm.

LNCaP tumour xenographs = test: In vivo antitumour study, LNCaP human prostate carcinoma xenograft; parameters: species or system male SCID mice; settings: 0.033 mmol kg−1 once daily; for reduction in tumour growth compared to control: 6 weeks, P<0.05
Procedure: All animal studies were performed according to the guidelines and approval of the Animal Care Committee of the University of Maryland School of Medicine, and were consistent with United Kingdom Coordinating Committee on Cancer Research guidelines for the welfare of animals in experimental neoplasia. The procedure was modified from [Grigoryev et al (1999)]. Briefly, LNCaP cells were trypsinised, counted, and suspended in Matrigel (2 × 10^7 cells ml^−1) (Fisher Scientific International, Inc., Hampton, NH, USA). Male SCID mice of 4–6 weeks of age were obtained from the National Cancer Institute (Frederick, MD, USA). Each mouse was inoculated s.c. with 0.1 ml of the cell suspension at two sites in the flank. The size of the tumours was determined by measuring the tumour volumes using calipers. Tumour volumes were calculated using the formula V=4/3 × π × r1^2 × r2(r1<r2). The tumours were allowed to develop to approximately 100 mm^3 before treatment. […] Tumour volumes were measured twice weekly and weights of animals were taken weekly after the initiation of treatment. The mice were subjected to 6 weeks of treatment. The mice were then killed and the tumours were excised, weighed, and stored at −80°C until analysis. Additionally, the plasma was collected with 50 IU of heparin and stored at −80°C until analysis.

LNCaP cells [2] = test: TUNEL assay of apoptosis in LNCaP cells; type: cell-based, human; settings: 6 days; for induction of apoptosis (TUNEL): 1 or 5 μM; for percentage of apoptotic cells (TUNEL): 5 μM
Procedure: A total of 4000 LNCaP cells were plated on each well of an eight-well Lab-Tek II® chamber slide (Nalge Nunc International, Naperville, IL, USA). The LNCaP cells were then treated with either 1 or 5 μM of ATRA or RAMBA for 6 days. Cells were then fixed in 4% paraformaldehyde solution in dH2O. The cells were then processed and stained with FITC (fluorescein isothiocyanate) according to kit instructions (In situ cell death detection kit, AP, Roche Diagnostics Corp., Indianapolis, IN, USA). The FITC-stained cells are then mounted with VectorShield® mounting medium for fluorescence with DAPI (4′,6-diamidine-2′-phenylindole dihydrochloride) nuclear stain (Vector Laboratories, Inc., Burlingame, CA, USA) and covered with ApopTag® plastic coverslips (Intergen Company, Purchase, NY, USA). The slides were then examined under fluorescence microscopy (Eclipse E400, Nikon, Inc., Melville, NY, USA) and counted using SPOT Advance® 3.5 software (Diagnostic Instruments, Inc., Sterling Heights, MI, USA).

LNCaP cells [3] = test: Cell-cycle analysis (propidium iodide, FACScan); type: cell-based, human; settings: 5 μM, 6 days; for Sub-G1 (%): apoptotic cells, control 9.02; for G2/M (%): control 2.20; for S (%): control 15.01; for G0/G1 (%): control 82.78
Procedure: LNCaP cells were treated with 1 or 5 μM of ATRA or each of the RAMBAs for 6 days. The cells were trypsinised and washed twice in PBS (Life Technologies, Grand Island, NY, USA). The cells were fixed by adding 70% ethanol and stored at −20°C until staining. The cells were washed twice in PBS. A volume of 1 ml of a propidium iodide (PI) solution (50 μg ml^−1 in PBS) and 500 μl of an RNase stock solution (100 μg ml^−1) were added to the cells and incubated for 1 h in the dark. Approximately 10^4 stained cells were then analysed by flow cytometry (Becton Dickenson FACScan, Franklin Lakes, NJ, USA). The percentages of cells in G0/G1, S, and G2/M phases of the cell cycle as well as percentage of apoptotic cells (sub G0/G1) were determined using MODFIT LT software (Verity Software House, San Jose, CA, USA). The percentages of cells in G0/G1, S, and G2/M phases of the cell cycle were obtained from diploid cells in the sample and the percentage of apoptotic cells (sub G0/G1) was obtained from total cells minus the debris.

CYP26 = target: T1, CYP26 (Homo sapiens, UniProt O43174); test: Cellular CYP26 assay: inhibition of ATRA metabolism in intact LNCaP cells; type: cell-based; settings: intact LNCaP cells pretreated with 1 μM ATRA; [11,12-3H]-ATRA substrate; HPLC
T1 construct: LNCaP cells were incubated with 1 μM ATRA for 24 h to induce the CYP26 enzyme; endogenous in cells; host or cells: LNCaP human prostate cancer cells, pre-treated with 1 μM ATRA
T1 sequence (O43174 1-497): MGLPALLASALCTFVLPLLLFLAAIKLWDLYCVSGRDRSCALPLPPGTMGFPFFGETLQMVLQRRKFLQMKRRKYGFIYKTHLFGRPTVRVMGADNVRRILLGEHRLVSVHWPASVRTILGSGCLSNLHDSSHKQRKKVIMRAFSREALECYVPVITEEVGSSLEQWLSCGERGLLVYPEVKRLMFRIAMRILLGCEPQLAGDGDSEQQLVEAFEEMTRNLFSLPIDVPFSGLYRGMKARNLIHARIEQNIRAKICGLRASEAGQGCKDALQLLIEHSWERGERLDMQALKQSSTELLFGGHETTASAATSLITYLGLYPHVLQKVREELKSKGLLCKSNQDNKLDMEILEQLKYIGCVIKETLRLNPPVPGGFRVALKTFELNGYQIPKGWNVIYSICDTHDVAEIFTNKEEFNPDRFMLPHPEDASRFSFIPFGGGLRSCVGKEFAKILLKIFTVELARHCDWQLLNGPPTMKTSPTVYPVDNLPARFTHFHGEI
Procedure: Following ATRA treatment, the LNCaP cells were incubated with 0.1 or 0.8 μM [11,12-^3H]-ATRA (PerkinElmer Life and Analytical Sciences, Inc., Boston, MA, USA) for 5 h. Following the 5 h incubation, the medium was collected and the cells were trypsinised and collected.

| Structure (SMILES) | IC50 (LNCaP cells [1]) | tumour growth compared to vehicle control (in words) (LNCaP tumour xenographs) | reduction in tumour growth compared to control (LNCaP tumour xenographs) | induction of apoptosis (TUNEL) (LNCaP cells [2]) | Sub-G1 (%) (LNCaP cells [3]) | G2/M (%) (LNCaP cells [3]) | S (%) (LNCaP cells [3]) | G0/G1 (%) (LNCaP cells [3]) | IC50 (CYP26) | percentage of apoptotic cells (TUNEL) (LNCaP cells [2]) |
| --- | --- | --- | --- | --- | --- | --- | --- | --- | --- | --- |
| CC1=C(/C=C/C(C)=C/C=C/C(C)=C/C(=O)O)C(C)(C)CCC1 [ATRA, all-trans-retinoic acid, reference compound] | 4.3 µM | statistically significantly LNCaP tumour growth inhibition | 75% | concentration-dependent induction of apoptosis | 13.64% | 12.42% | 9.84% | 77.74% |  |  |
| CC1=C(/C=C/C(C)=C/C=C/C(C)=C/C(=O)O)C(C)(C)CCC1n1ccnc1 (stereo not shown) [VN/14-1] | 10 µM | ineffective; also recorded: not significantly different |  | concentration-dependent induction of apoptosis | 17.88% | 10.15% | 7.26% | 82.59% | 6.5 ± 1.5 nM | 17.03% |
| CC1=C(/C=C/C(C)=C/C=C/C(C)=C/C(=O)n2ccnc2)C(C)(C)CCC1n1ccnc1 (stereo not shown) [VN/50-1] | 6 µM |  |  | concentration-dependent induction of apoptosis | 17.67% | 7.30% | 11.38% | 81.33% | 90 ± 10 nM | 17.03% |
| CC1=C(/C=C/C(C)=C/C=C/C(C)=C/C(=O)Nc2ccc(O)cc2)C(C)(C)CCC1n1ccnc1 (stereo not shown) [VN/66-1] | 4.5 µM | statistically significantly LNCaP tumour growth inhibition | 44% | concentration-dependent induction of apoptosis | 14.49% | 5.07% | 11.14% | 83.80% | 62.5 ± 12.5 nM |  |
| CC1=C(/C=C/C(C)=C/C=C/C(C)=C\C(=O)Nc2ccc(O)cc2)C(C)(C)CCC1n1ccnc1 (stereo not shown) [VN/69-1] | 5 µM | statistically significantly LNCaP tumour growth inhibition | 47% | concentration-dependent induction of apoptosis | 13.39% | 6.20% | 11.14% | 82.66% | 90 ± 12.5 nM |  |
